Test system: mouse liver microsomes, percent remaining, LC-MS/MS
Assay: qHTS for Activators of Human alpha-Glucosidase as a Potential Chaperone Treatment of Pompe Disease: Metabolic Stability
Settings: at 5 µM; hits give high values
Text: Alpha-glucosidase is responsible for hydrolysis of terminal, non-reducing 1,4-linked alpha-D-glucose residues with release of alpha-D-glucose. It is a lysosomal hydrolase that is required for the degradation of a small percentage (1-3%) of cellular glycogen in human. Deficiency of this enzyme results in glycogen-storage disease type II (GSDII), also referred to as Pompe disease, an autosomal recessive disorder. Structurally normal glycogen is accumulated in lysosomes and cytoplasm in affected patients, primarily in muscle tissues. Excessive glycogen storage within lysosomes may interrupt normal functioning of other organelles and leads to cellular injury. In turn, this leads to enlargement and dysfunction of the entire organ involved (eg, cardiomyopathy and muscle weakness). It has reported that the improper folding and trafficking of alpha-glucosidase resulting from the genetic mutations may account for a significant number of Pompe patients. […] We optimized this alpha-glucosidase assay in 1536-well plate format for identifying the novel small molecule inhibitors with the structures other than the sugar analogs in order to develop the new pharmacological chaperones. The probe and other compounds were characterized in this metabolic stability assay to asses their properties. NIH Chemical Genomics Center [NCGC] NIH Molecular Libraries Probe Production Centers Network [MLPCN] MLPCN Grant: MH084841 Assay Submitter (PI): Wei Zheng
5uM of compound is incubated with mouse liver microsome; the reference compounds are verapamil and warfarin. Compounds are incubated and samples are analyzed with LC-MS/MS.

SMILES	percent remaining
CCCN1CNc2c(c(=O)[nH]c(=S)n2CCc2cccc(Cl)c2Cl)C1	105%
CCCN1CNc2c(c(=O)[nH]c(=S)n2CCc2ccc(OC)c(OC)c2)C1	4%
CCCN1CNc2c(c(=O)[nH]c(=S)n2Cc2ccc(OC)c(OC)c2)C1	101%
